Test results reported in patent US11000033B2, “Ketone or oxime compound, and herbicide” (NISSAN CHEMICAL CORPORATION, priority 2014, dated 2021).

Assays:
Type in all cases: in vivo
Galium spurium = assay: Test Example 5: herbicidal effect by foliage application, plastic box (symbol Q); details: 320 g/ha, 3 weeks after application
Summary of the method: (§1)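 Post-emergence spray; diluvial soil (sterilized), ~1.5 cm seed cover; greenhouse 25–30° C; 14-day-old plants; water-diluted emulsion at predetermined dose; visual score at 3 wk post-treatment.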

Setaria viridis = assay: Test Example 5: herbicidal effect by foliage application, plastic box (symbol G); details: 320 g/ha, 3 weeks after application
Summary of the method: as §1

Lolium multiflorum Lam. [1] = assay: Test Example 5: herbicidal effect by foliage application, plastic box (symbol K); details: 320 g/ha, 3 weeks after application
Summary of the method: as §1

rapeseed = assay: Test Example 4: effect on crop by soil treatment (symbol g); details: application herbicide amount 320 g/ha
Summary of the method: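 Plants grew in a 25° C. to 30° C. greenhouse after spot-sowing of seeds, including beet, rapeseed, wheat and rice, into sterilized diluvial soil under roughly 1.5 cm of cover soil.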

Alopecurus myosuroides = assay: Test Example 4: herbicidal effect by soil treatment (symbol J); details: application herbicide amount 320 g/ha
Summary of the method: (§2)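 Seeds were sown in sterilized diluvial soil, covered with about 1.5 cm of soil, and the soil surface was sprayed with a water-diluted emulsion of the compound at a predetermined rate. Plants grew in a greenhouse at 25° C. to 30° C.; effects were scored visually 3 weeks after application.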

Lolium multiflorum Lam. [2] = assay: Test Example 4: herbicidal effect by soil treatment (symbol K); details: application herbicide amount 320 g/ha
Summary of the method: as §2

corn = assay: Test Example 4: effect on crop by soil treatment (symbol c); details: application herbicide amount 320 g/ha
Summary of the method: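 Sterilized diluvial soil, spot sowing, ~1.5 cm soil cover; greenhouse 25–30° C.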

[3] = tested on: Echinochloa crus-galli var. crus-galli; assay: Test Example 4: herbicidal effect by soil treatment (symbol H); details: application herbicide amount 320 g/ha
Summary of the method: as §2

Amaranthus retroflexus = assay: Test Example 5: herbicidal effect by foliage application, plastic box (symbol N); details: 320 g/ha, 3 weeks after application
Summary of the method: as §1

Avena fatua = assay: Test Example 4: herbicidal effect by soil treatment (symbol I); details: application herbicide amount 320 g/ha
Summary of the method: as §2

[4] = tested on: Echinochloa oryzacola Vasing.; assay: Test Example 2: herbicidal activity, application during weed generation in submerged conditions (symbol A); details: Table 23; application herbicide amount 320 g/ha; grade 0-5 by criteria of Test Example 1
Summary of the method: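 Submerged alluvial soil (4 cm) sown with mixed seed; greenhouse 25–30° C. 1–2 leaf: diluted emulsion onto water surface, preset dose. Visual score, 3 wk.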

rice plant = assay: Test Example 5: effect on crop by foliage application, plastic box (symbol b); details: 320 g/ha, 3 weeks after application
Summary of the method: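 In a plastic box 7 cm deep filled with sterilized diluvial soil, seeds of crops and weeds such as Digitaria ciliaris, Avena fatua and Amaranthus retroflexus are sown in spots and covered with about 1.5 cm of soil before greenhouse growth at 25–30° C.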

Abutilon theophrasti = assay: Test Example 5: herbicidal effect by foliage application, plastic box (symbol M); details: 320 g/ha, 3 weeks after application
Summary of the method: as §1

[5] = tested on: Echinochloa oryzacola Vasing.; assay: Test Example 1: herbicidal activity, application before weed generation in submerged conditions (symbol A); details: application herbicide amount 320 g/ha
Summary of the method: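 In a flooded pot test with alluvial soil, the emulsion-formulated compound was diluted with water to a predetermined amount and applied to the floodwater immediately on the sowing day. Pots were held in a greenhouse at 25–30 °C for 3 weeks before each weed was rated.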

Veronica persica = assay: Test Example 5: herbicidal effect by foliage application, plastic box (symbol R); details: 320 g/ha, 3 weeks after application
Summary of the method: as §1

Stellaria media = assay: Test Example 5: herbicidal effect by foliage application, plastic box (symbol P); details: 320 g/ha, 3 weeks after application
Summary of the method: as §1

CON=C(C)CC1CC(OC(=O)C2(C)CC2(Cl)Cl)=C(c2c(C)cc(C)cc2C)C1=O (stereo not drawn) [1-036]
Q: Galium spurium, herbicidal effect grade (Galium spurium): 0 (Herbicidal ratio of 5% or lower (almost no effect)) | G: Setaria viridis, herbicidal effect grade (Setaria viridis): 5 (Herbicidal ratio of 90% or more (almost completely withered)) | K: Lolium multiflorum Lam., herbicidal effect grade (Lolium multiflorum Lam. [1]): 5 (Herbicidal ratio of 90% or more (almost completely withered)) | g (rapeseed) effect on crop grade (rapeseed): 5 (Herbicidal ratio of 90% or more (almost completely withered)) | J (Alopecurus myosuroides) herbicidal effect grade (Alopecurus myosuroides): 5 (Herbicidal ratio of 90% or more (almost completely withered)) | K (Lolium multiflorum Lam.) herbicidal effect grade (Lolium multiflorum Lam. [2]): 5 (Herbicidal ratio of 90% or more (almost completely withered)) | c (corn) effect on crop grade (corn): 3 (Herbicidal ratio of 40% or higher and lower than 70%) | H (Echinochloa crus-galli var. crus-galli) herbicidal effect grade [3]: 5 (Herbicidal ratio of 90% or more (almost completely withered)) | N: Amaranthus retroflexus, herbicidal effect grade (Amaranthus retroflexus): 4 (Herbicidal ratio of 70% or higher and lower than 90%) | I (Avena fatua) herbicidal effect grade (Avena fatua): 5 (Herbicidal ratio of 90% or more (almost completely withered)) | Herbicidal effect grade, A: Echinochloa oryzacola Vasing. [4]: 5 (Herbicidal ratio of 90% or more (almost completely withered)) | b: directly sowed rice plant, effect on crop grade (rice plant): 5 (Herbicidal ratio of 90% or more (almost completely withered)) | M: Abutilon theophrasti, herbicidal effect grade (Abutilon theophrasti): 4 (Herbicidal ratio of 70% or higher and lower than 90%) | Herbicidal effect grade, A: Echinochloa oryzacola Vasing. [5]: 5 (Herbicidal ratio of 90% or more (almost completely withered))

CON=C(C)CC1CC(OC(=O)COc2ccc(Cl)cc2Cl)=C(c2c(C)cc(C)cc2C)C1=O (stereo not drawn) [1-075]
Q: Galium spurium, herbicidal effect (criteria 0-5) (Galium spurium): 0 (Herbicidal ratio of 5% or lower (almost no effect)) | G: Setaria viridis, herbicidal effect (criteria 0-5) (Setaria viridis): 5 (Herbicidal ratio of 90% or more (almost completely withered)) | R: Veronica persica, herbicidal effect (criteria 0-5) (Veronica persica): 0 (Herbicidal ratio of 5% or lower (almost no effect)) | K: Lolium multiflorum Lam., herbicidal effect (criteria 0-5) (Lolium multiflorum Lam. [1]): 5 (Herbicidal ratio of 90% or more (almost completely withered)) | J (Alopecurus myosuroides) herbicidal effect grade (Alopecurus myosuroides): 5 (Herbicidal ratio of 90% or more (almost completely withered)) | K (Lolium multiflorum Lam.) herbicidal effect grade (Lolium multiflorum Lam. [2]): 5 (Herbicidal ratio of 90% or more (almost completely withered)) | c (corn) effect on crop grade (corn): 5 (Herbicidal ratio of 90% or more (almost completely withered)) | H (Echinochloa crus-galli var. crus-galli) herbicidal effect grade [3]: 5 (Herbicidal ratio of 90% or more (almost completely withered)) | N: Amaranthus retroflexus, herbicidal effect (criteria 0-5) (Amaranthus retroflexus): 4 (Herbicidal ratio of 70% or higher and lower than 90%) | Herbicidal effect grade, A: Echinochloa oryzacola Vasing. [4]: 5 (Herbicidal ratio of 90% or more (almost completely withered)) | b: directly sowed rice plant, effect on crop (criteria 0-5) (rice plant): 5 (Herbicidal ratio of 90% or more (almost completely withered)) | M: Abutilon theophrasti, herbicidal effect (criteria 0-5) (Abutilon theophrasti): 4 (Herbicidal ratio of 70% or higher and lower than 90%) | Herbicidal effect grade, A: Echinochloa oryzacola Vasing. [5]: 5 (Herbicidal ratio of 90% or more (almost completely withered)) | P: Stellaria media, herbicidal effect (criteria 0-5) (Stellaria media): 1 (Herbicidal ratio of 5% or higher and lower than 20%)

CON=C(C)CC1CC(OC(=O)COc2ccc(F)cc2)=C(c2c(C)cc(C)cc2C)C1=O (stereo not drawn) [1-073]
G: Setaria viridis, herbicidal effect (criteria 0-5) (Setaria viridis): 5 (Herbicidal ratio of 90% or more (almost completely withered)) | R: Veronica persica, herbicidal effect (criteria 0-5) (Veronica persica): 3 (Herbicidal ratio of 40% or higher and lower than 70%) | K: Lolium multiflorum Lam., herbicidal effect (criteria 0-5) (Lolium multiflorum Lam. [1]): 5 (Herbicidal ratio of 90% or more (almost completely withered)) | g (rapeseed) effect on crop grade (rapeseed): 4 (Herbicidal ratio of 70% or higher and lower than 90%) | J (Alopecurus myosuroides) herbicidal effect grade (Alopecurus myosuroides): 5 (Herbicidal ratio of 90% or more (almost completely withered)) | K (Lolium multiflorum Lam.) herbicidal effect grade (Lolium multiflorum Lam. [2]): 5 (Herbicidal ratio of 90% or more (almost completely withered)) | c (corn) effect on crop grade (corn): 4 (Herbicidal ratio of 70% or higher and lower than 90%) | H (Echinochloa crus-galli var. crus-galli) herbicidal effect grade [3]: 5 (Herbicidal ratio of 90% or more (almost completely withered)) | N: Amaranthus retroflexus, herbicidal effect (criteria 0-5) (Amaranthus retroflexus): 2 (Herbicidal ratio of 20% or higher and lower than 40%) | I (Avena fatua) herbicidal effect grade (Avena fatua): 4 (Herbicidal ratio of 70% or higher and lower than 90%) | Herbicidal effect grade, A: Echinochloa oryzacola Vasing. [4]: 5 (Herbicidal ratio of 90% or more (almost completely withered)) | b: directly sowed rice plant, effect on crop (criteria 0-5) (rice plant): 5 (Herbicidal ratio of 90% or more (almost completely withered)) | M: Abutilon theophrasti, herbicidal effect (criteria 0-5) (Abutilon theophrasti): 4 (Herbicidal ratio of 70% or higher and lower than 90%) | Herbicidal effect grade, A: Echinochloa oryzacola Vasing. [5]: 5 (Herbicidal ratio of 90% or more (almost completely withered)) | P: Stellaria media, herbicidal effect (criteria 0-5) (Stellaria media): 2 (Herbicidal ratio of 20% or higher and lower than 40%)

COCC(CC1CC(O)=C(c2c(C)cc(C)cc2C)C1=O)=NOC (stereo not drawn) [1-040]
G: Setaria viridis, herbicidal effect grade (Setaria viridis): 4 (Herbicidal ratio of 70% or higher and lower than 90%) | R: Veronica persica, herbicidal effect grade (Veronica persica): 0 (Herbicidal ratio of 5% or lower (almost no effect)) | K: Lolium multiflorum Lam., herbicidal effect grade (Lolium multiflorum Lam. [1]): 5 (Herbicidal ratio of 90% or more (almost completely withered)) | g (rapeseed) effect on crop grade (rapeseed): 3 (Herbicidal ratio of 40% or higher and lower than 70%) | J (Alopecurus myosuroides) herbicidal effect grade (Alopecurus myosuroides): 4 (Herbicidal ratio of 70% or higher and lower than 90%) | K (Lolium multiflorum Lam.) herbicidal effect grade (Lolium multiflorum Lam. [2]): 4 (Herbicidal ratio of 70% or higher and lower than 90%) | c (corn) effect on crop grade (corn): 0 (Herbicidal ratio of 5% or lower (almost no effect)) | H (Echinochloa crus-galli var. crus-galli) herbicidal effect grade [3]: 5 (Herbicidal ratio of 90% or more (almost completely withered)) | N: Amaranthus retroflexus, herbicidal effect grade (Amaranthus retroflexus): 0 (Herbicidal ratio of 5% or lower (almost no effect)) | I (Avena fatua) herbicidal effect grade (Avena fatua): 3 (Herbicidal ratio of 40% or higher and lower than 70%) | Herbicidal effect grade, A: Echinochloa oryzacola Vasing. [4]: 4 (Herbicidal ratio of 70% or higher and lower than 90%) | b: directly sowed rice plant, effect on crop grade (rice plant): 5 (Herbicidal ratio of 90% or more (almost completely withered)) | M: Abutilon theophrasti, herbicidal effect grade (Abutilon theophrasti): 1 (Herbicidal ratio of 5% or higher and lower than 20%) | Herbicidal effect grade, A: Echinochloa oryzacola Vasing. [5]: 3 (Herbicidal ratio of 40% or higher and lower than 70%) | P: Stellaria media, herbicidal effect grade (Stellaria media): 0 (Herbicidal ratio of 5% or lower (almost no effect))

COCCOC1=C(c2c(C)cc(C)cc2C)C(=O)C(CC(C)=NOC)C1 (stereo not drawn) [1-037]
Q: Galium spurium, herbicidal effect grade (Galium spurium): 0 (Herbicidal ratio of 5% or lower (almost no effect)) | G: Setaria viridis, herbicidal effect grade (Setaria viridis): 0 (Herbicidal ratio of 5% or lower (almost no effect)) | K: Lolium multiflorum Lam., herbicidal effect grade (Lolium multiflorum Lam. [1]): 0 (Herbicidal ratio of 5% or lower (almost no effect)) | g (rapeseed) effect on crop grade (rapeseed): 0 (Herbicidal ratio of 5% or lower (almost no effect)) | J (Alopecurus myosuroides) herbicidal effect grade (Alopecurus myosuroides): 0 (Herbicidal ratio of 5% or lower (almost no effect)) | K (Lolium multiflorum Lam.) herbicidal effect grade (Lolium multiflorum Lam. [2]): 0 (Herbicidal ratio of 5% or lower (almost no effect)) | c (corn) effect on crop grade (corn): 0 (Herbicidal ratio of 5% or lower (almost no effect)) | H (Echinochloa crus-galli var. crus-galli) herbicidal effect grade [3]: 0 (Herbicidal ratio of 5% or lower (almost no effect)) | N: Amaranthus retroflexus, herbicidal effect grade (Amaranthus retroflexus): 0 (Herbicidal ratio of 5% or lower (almost no effect)) | I (Avena fatua) herbicidal effect grade (Avena fatua): 0 (Herbicidal ratio of 5% or lower (almost no effect)) | Herbicidal effect grade, A: Echinochloa oryzacola Vasing. [4]: 0 (Herbicidal ratio of 5% or lower (almost no effect)) | b: directly sowed rice plant, effect on crop grade (rice plant): 0 (Herbicidal ratio of 5% or lower (almost no effect)) | M: Abutilon theophrasti, herbicidal effect grade (Abutilon theophrasti): 0 (Herbicidal ratio of 5% or lower (almost no effect)) | Herbicidal effect grade, A: Echinochloa oryzacola Vasing. [5]: 0 (Herbicidal ratio of 5% or lower (almost no effect))
